Data from patent US20160008277A1, “CO-PACKAGED DRUG PRODUCTS” (Lightlake Therapeutics Inc., priority 2014, published 2016).
Read-outs that look alike come from different tables or passages of the source.

How the values were obtained:
[1] = Safety of intranasal naloxone in humans (Study 1): nasal irritation, vital signs, ECG, clinical laboratory; type: in vivo, human
Method: These vital signs and temperature were also measured at screening, clinic intake, one day after each dosing session and at follow-up. […] AEs were recorded from the start of study-drug administration until clinic discharge. […] Clinical laboratory measurements were done prior to the first drug administration and on the day of clinic release.
Statistical Analysis of Adverse Events: AEs were coded using the most recent version of the Medical Dictionary for Regulatory Activities (MedDRA). Preferred terms and are grouped by system, organ, class (SOC) designation. AEs are presented as a listing including the start date, stop date, severity, relationship, outcome, and duration.

[2] = for Cmax/D, GLSM: dose adjustment to 0.4 mg

## C=CCN1CC[C@]23c4c5ccc(O)c4O[C@H]2C(=O)CC[C@@]3(O)[C@H]1C5 [naloxone, 17-allyl-4,5a-epoxy-3,14-dihydroxymorphinan-6-one]
[1]; 2 mg IN dose
  Pharyngeal pain: One subject experienced mild transient (over 3 min) pharyngeal pain
[1]; IN naloxone at 2 and 4 mg to both nostrils
  Nasal irritation (erythema, edema, erosion, other sign in the nasal cavity): No erythema, edema, erosion, or other sign was observed
[1]; Study 1
  QTcF prolongation: no evidence of QTcF prolongation
[1]; after naloxone administration, Study 1
  Vital signs, ECG, and clinical laboratory parameters: did not reveal any clinically noteworthy changes
[2]; 0.4 mg IM
  λz, Mean: 0.593 h⁻¹
  Cmax/D, GLSM: 0.755 ng/mL
[2]; 2 mg IN
  λz, Mean: 0.588 h⁻¹
  Cmax/D, GLSM: 0.510 ng/mL
[2]; 2 mg IN versus IM
  Frel, Mean: 0.571
[2]; 4 mg IN versus IM
  Frel, Mean: 0.475
[2]; 4 mg IN
  Cmax/D, GLSM: 0.466 ng/mL
